The values below come from PMC4322352, “Sirtinol Inhibits Neutrophil Elastase Activity and Attenuates Lipopolysaccharide-Mediated Acute Lung Injury in Mice” (Scientific Reports, 2015).

This experiment has as its target T1, human neutrophil elastase (HNE) (Homo sapiens, UniProt P08246).
T1 construct: gene ELANE
T1 sequence (P08246 30-247): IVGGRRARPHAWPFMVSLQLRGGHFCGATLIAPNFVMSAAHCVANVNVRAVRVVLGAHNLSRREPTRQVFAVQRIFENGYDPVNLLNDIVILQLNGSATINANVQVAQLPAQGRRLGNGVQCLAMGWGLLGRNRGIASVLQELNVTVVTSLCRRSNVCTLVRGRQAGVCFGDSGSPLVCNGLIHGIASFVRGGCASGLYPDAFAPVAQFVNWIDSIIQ
In words: chromogenic enzymatic assay with purified HNE, absorbance at […] nm. Format: biochemical.

Usually IC50 stands for the point on the concentration scale where inhibition reaches its midpoint. Read a low IC50 as higher potency. As to `CC(NC(=O)c1ccccc1/N=C/c1c(O)ccc2ccccc12)c1ccccc1` (stereo not shown) [Sirtinol, 2-[(2-hydroxynaphthalen-1-ylmethylene)amino]-N-(1-phenethyl) benzamide], half-maximal inhibition (IC50) required 8.4 ± 0.53 µM.
